The kinase profiling compilation of Christmann-Franck et al. (2016)

Legend:
Assay in all cases: radiometric filter-binding kinase assay, Kinase HotSpot
Conditions in all cases: compound 0.5 µM; ATP 10 µM
ACVR1 (human) = ACVR1 (human) (UniProt Q04771)
ADRBK1 (human) = ADRBK1 (human) (UniProt P25098)
AKT3 (human) = AKT3 (human) (UniProt Q9Y243)
ALK (human) = ALK (human) (UniProt Q9UM73)
CAMK1 (human) = CAMK1 (human) (UniProt Q14012)
CAMK1D (human) = CAMK1D (human) (UniProt Q8IU85)
CAMK2B (human) = CAMK2B (human) (UniProt Q13554)
CAMKK1 (human) = CAMKK1 (human) (UniProt Q8N5S9)
CDK1 CCNB1 (human) = CDK1 CCNB1 (human) (UniProt P06493+P14635)
CDK2 CCNE1 (human) = CDK2 CCNE1 (human) (UniProt P24941+P24864)
CDK3 CCNE1 (human) = CDK3 CCNE1 (human) (UniProt Q00526+P24864)
CDK7 CCNH MNAT1 (human) = CDK7 CCNH MNAT1 (human) (UniProt P50613+P51948+P51946)
Sequence of CDK7 CCNH MNAT1 (human) (P50613 whole entry, looked up): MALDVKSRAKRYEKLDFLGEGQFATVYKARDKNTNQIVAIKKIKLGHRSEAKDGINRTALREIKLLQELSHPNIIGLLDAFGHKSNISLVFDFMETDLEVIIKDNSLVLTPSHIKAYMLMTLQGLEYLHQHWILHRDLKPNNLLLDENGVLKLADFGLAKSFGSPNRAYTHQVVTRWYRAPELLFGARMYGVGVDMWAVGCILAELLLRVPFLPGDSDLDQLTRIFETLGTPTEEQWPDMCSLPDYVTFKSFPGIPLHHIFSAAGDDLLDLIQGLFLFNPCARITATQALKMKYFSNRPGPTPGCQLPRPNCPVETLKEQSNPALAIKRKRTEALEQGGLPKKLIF
Sequence of CDK7 CCNH MNAT1 (human) (P51946 whole entry, looked up): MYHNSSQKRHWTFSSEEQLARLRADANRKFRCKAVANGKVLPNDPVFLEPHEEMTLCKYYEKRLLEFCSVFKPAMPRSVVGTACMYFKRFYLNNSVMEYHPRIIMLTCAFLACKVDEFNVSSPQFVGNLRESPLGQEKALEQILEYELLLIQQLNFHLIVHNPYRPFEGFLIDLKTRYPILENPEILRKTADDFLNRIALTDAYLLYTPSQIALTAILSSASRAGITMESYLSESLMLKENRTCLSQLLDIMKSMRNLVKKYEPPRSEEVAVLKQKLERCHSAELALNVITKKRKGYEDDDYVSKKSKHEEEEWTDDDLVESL
Sequence of CDK7 CCNH MNAT1 (human) (P51948 whole entry, looked up): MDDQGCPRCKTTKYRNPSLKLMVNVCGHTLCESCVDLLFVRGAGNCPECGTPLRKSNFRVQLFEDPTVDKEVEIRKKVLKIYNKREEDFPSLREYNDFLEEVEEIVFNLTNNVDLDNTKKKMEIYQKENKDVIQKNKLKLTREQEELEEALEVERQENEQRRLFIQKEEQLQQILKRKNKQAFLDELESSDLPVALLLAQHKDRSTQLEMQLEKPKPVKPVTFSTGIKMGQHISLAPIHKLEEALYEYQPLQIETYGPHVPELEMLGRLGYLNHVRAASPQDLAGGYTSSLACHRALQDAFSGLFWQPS

CHUK (human) = CHUK (human) (UniProt O15111)
CSNK1G1 (human) = CSNK1G1 (human) (UniProt Q9HCP0)
DYRK1A (human) = DYRK1A (human) (UniProt Q13627)
EGFR (human) = EGFR (human) (UniProt P00533)
EPHA7 (human) = EPHA7 (human) (UniProt Q15375)
GRK5 (human) = GRK5 (human) (UniProt P34947)
GRK6 (human) = GRK6 (human) (UniProt P43250)
HIPK3 (human) = HIPK3 (human) (UniProt Q9H422)
LCK (human) = LCK (human) (UniProt P06239)
LIMK1 (human) = LIMK1 (human) (UniProt P53667)
MAP4K4 (human) = MAP4K4 (human) (UniProt O95819)
MELK (human) = MELK (human) (UniProt Q14680)
MINK1 (human) = MINK1 (human) (UniProt Q8N4C8)
MKNK2 (human) = MKNK2 (human) (UniProt Q9HBH9)
NEK2 (human) = NEK2 (human) (UniProt P51955)
NEK4 (human) = NEK4 (human) (UniProt P51957)
NTRK1 (human) = NTRK1 (human) (UniProt P04629)
PDGFRA (human) = PDGFRA (human) (UniProt P16234)
PDGFRB (human) = PDGFRB (human) (UniProt P09619)
PRKCA (human) = PRKCA (human) (UniProt P17252)
PRKCG (human) = PRKCG (human) (UniProt P05129)
PRKCI (human) = PRKCI (human) (UniProt P41743)
PRKCZ (human) = PRKCZ (human) (UniProt Q05513)
PRKD1 (human) = PRKD1 (human) (UniProt Q15139)
Sequence of PRKD1 (human) (Q15139 whole entry, looked up): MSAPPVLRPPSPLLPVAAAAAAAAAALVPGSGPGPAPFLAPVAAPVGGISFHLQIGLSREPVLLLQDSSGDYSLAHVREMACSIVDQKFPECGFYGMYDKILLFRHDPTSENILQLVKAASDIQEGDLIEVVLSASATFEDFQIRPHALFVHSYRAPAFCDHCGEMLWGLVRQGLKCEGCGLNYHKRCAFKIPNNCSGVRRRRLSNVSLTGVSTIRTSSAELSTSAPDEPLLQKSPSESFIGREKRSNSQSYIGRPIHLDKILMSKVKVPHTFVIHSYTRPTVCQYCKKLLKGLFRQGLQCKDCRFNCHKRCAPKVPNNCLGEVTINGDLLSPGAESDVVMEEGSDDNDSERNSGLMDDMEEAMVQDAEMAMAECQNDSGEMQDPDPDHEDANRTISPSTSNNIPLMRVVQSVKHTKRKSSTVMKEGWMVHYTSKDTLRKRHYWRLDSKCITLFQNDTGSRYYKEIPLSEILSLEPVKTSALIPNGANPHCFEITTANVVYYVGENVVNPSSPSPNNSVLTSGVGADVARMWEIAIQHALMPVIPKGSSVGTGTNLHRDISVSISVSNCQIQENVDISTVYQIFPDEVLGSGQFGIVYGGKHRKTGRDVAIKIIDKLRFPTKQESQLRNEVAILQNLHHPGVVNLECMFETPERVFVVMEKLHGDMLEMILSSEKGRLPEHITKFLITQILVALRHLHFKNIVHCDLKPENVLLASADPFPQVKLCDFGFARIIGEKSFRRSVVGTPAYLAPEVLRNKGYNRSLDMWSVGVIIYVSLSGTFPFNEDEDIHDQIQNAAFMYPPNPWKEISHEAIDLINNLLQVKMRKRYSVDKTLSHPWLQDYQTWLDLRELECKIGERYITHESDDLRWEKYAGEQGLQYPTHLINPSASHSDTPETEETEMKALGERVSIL

PRKD3 (human) = PRKD3 (human) (UniProt O94806)
SRMS (human) = SRMS (human) (UniProt Q9H3Y6)
Sequence of SRMS (human) (Q9H3Y6 whole entry, looked up): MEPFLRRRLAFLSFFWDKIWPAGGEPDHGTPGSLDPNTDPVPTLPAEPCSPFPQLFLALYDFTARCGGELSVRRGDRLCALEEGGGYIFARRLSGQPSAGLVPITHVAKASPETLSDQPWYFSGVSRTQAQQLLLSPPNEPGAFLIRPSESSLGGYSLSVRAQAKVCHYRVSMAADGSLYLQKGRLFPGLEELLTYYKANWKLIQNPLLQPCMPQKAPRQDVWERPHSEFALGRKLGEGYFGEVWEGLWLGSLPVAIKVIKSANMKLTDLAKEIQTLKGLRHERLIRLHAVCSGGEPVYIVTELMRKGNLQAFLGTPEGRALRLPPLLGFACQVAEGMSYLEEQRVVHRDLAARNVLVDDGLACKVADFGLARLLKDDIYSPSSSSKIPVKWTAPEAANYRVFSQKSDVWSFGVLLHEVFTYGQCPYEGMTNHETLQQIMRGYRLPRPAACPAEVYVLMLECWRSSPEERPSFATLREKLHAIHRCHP

SRPK1 (human) = SRPK1 (human) (UniProt Q96SB4)
Sequence of SRPK1 (human) (Q96SB4 whole entry, looked up): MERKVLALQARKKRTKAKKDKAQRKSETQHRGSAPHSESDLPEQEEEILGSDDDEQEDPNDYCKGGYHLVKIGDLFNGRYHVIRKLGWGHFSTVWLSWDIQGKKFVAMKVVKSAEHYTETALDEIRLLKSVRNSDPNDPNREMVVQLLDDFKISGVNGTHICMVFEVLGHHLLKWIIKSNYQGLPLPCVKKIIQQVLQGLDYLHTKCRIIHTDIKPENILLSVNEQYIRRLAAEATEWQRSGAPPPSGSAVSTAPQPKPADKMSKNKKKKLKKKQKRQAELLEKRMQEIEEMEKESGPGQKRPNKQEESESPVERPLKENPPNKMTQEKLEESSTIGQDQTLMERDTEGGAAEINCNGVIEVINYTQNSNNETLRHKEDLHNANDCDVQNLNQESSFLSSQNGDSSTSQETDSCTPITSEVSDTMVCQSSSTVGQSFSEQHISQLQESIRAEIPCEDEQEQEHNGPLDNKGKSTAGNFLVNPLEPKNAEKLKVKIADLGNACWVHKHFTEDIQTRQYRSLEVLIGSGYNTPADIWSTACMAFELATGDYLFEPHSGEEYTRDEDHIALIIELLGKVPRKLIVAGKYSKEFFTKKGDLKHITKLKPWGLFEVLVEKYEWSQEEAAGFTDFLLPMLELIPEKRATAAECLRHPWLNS

STK25 (human) = STK25 (human) (UniProt O00506)
TGFBR1 (human) = TGFBR1 (human) (UniProt P36897)
WNK3 (human) = WNK3 (human) (UniProt Q9BYP7)

Sequence of CAMK1 (human) (Q14012 whole entry, looked up): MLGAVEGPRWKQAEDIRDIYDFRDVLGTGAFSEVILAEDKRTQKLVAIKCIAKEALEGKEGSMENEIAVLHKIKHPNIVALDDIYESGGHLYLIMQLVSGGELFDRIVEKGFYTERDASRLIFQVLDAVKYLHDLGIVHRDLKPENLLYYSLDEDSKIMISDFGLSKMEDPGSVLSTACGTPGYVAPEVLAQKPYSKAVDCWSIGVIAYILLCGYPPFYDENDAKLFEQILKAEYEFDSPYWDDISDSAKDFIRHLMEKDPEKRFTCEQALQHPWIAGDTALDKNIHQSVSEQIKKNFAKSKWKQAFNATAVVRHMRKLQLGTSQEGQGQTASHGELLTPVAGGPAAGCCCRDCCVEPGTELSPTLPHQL

`N#C/C(=C(/N)Sc1ccc(N)cc1)c1ccccc1C(F)(F)F` gave a residual activity (ACVR1 (human)) of 101%, a residual activity (ADRBK1 (human)) of 114% and a residual activity (AKT3 (human)) of 96.2%. It also gave a residual activity (ALK (human)) of 100%, a residual activity (CAMK1 (human)) of 91.6% and a residual activity (CAMK1D (human)) of 129%. For the same molecule, the residual activity (CAMK2B (human)) was 93.5%, the residual activity (CAMKK1 (human)) was 117% and the residual activity (CDK1 CCNB1 (human)) was 105%. For the same molecule, the residual activity (CDK2 CCNE1 (human)) was 95.4%, the residual activity (CDK3 CCNE1 (human)) was 105% and the residual activity (CDK7 CCNH MNAT1 (human)) was 100%. The residual activity (CHUK (human)) was 102%, the residual activity (CSNK1G1 (human)) was 89% and the residual activity (DYRK1A (human)) was 93.9%. It also gave a residual activity (EGFR (human)) of 97.3%, a residual activity (EPHA7 (human)) of 105% and a residual activity (GRK5 (human)) of 102%. For the same molecule, the residual activity (GRK6 (human)) was 100%, the residual activity (HIPK3 (human)) was 114% and the residual activity (LCK (human)) was 107%. The residual activity (LIMK1 (human)) was 98.7%, the residual activity (MAP4K4 (human)) was 93.4% and the residual activity (MELK (human)) was 96.1%. For the same molecule, the residual activity (MINK1 (human)) was 104%, the residual activity (MKNK2 (human)) was 109% and the residual activity (NEK2 (human)) was 94.9%. The residual activity (NEK4 (human)) was 95.9%, the residual activity (NTRK1 (human)) was 109% and the residual activity (PDGFRA (human)) was 99.5%. It also gave a residual activity (PDGFRB (human)) of 103%, a residual activity (PRKCA (human)) of 100% and a residual activity (PRKCG (human)) of 99.5%. For the same molecule, the residual activity (PRKCI (human)) was 102%, the residual activity (PRKCZ (human)) was 106% and the residual activity (PRKD1 (human)) was 103%. The residual activity (PRKD3 (human)) was 96.8%, the residual activity (SRMS (human)) was 105% and the residual activity (SRPK1 (human)) was 96.5%. For the same molecule, the residual activity (STK25 (human)) was 114%, the residual activity (TGFBR1 (human)) was 98.3% and the residual activity (WNK3 (human)) was 94.9%.
